Several values for one entry are separate records, joined by “and”; a condition that tells them apart may be missing. Identical values can stand only once.
How the values were obtained:
[1] = tested on: human hepatocarcinoma cell line HepG2; assay: Orthotopic model of human hepatocellular carcinoma; assay type: in vivo, nude mice
Method: To assess the compounds in vivo, an orthotopic model of human hepatocellular carcinoma was used. The orthotopic tumor model was generated by implanting human hepatocarcinoma cell line HepG2 into nude mice and allowing the tumor cells to grow in vivo.
The efficacy study was carried out using 10 mice per group and two dosage regimens. Compound II (see Example 2) was administered by oral gavage (po) at a dosage of 175 mg/kg once daily for 3 weeks (QDx21) or at a dosage of 87.5 mg/kg twice daily for 3 weeks (BIDx21). Vehicle (100 μL) was administered to control animals.

HPH = assay: Multiplexed cytotoxicity assay; assay type: cell-based; details: normal primary hepatocyte, 72 hour
Method: To assess the cytotoxicity of compound II (see Example 2) in cancer and normal cells, the cells were grown in RPMI1640, 10% FBS, 2 mM L-alanyl-L-Glutamine, 1 mM Na Pyruvate or a special medium in a humidified atmosphere of 5% CO2 at 37° C. Cells were seeded into 384-well plates and incubated in a humidified atmosphere of 5% CO2 at 37° C. Compound II was added 24 hours post cell seeding. At the same time, a time zero untreated cell plate was generated.
After a 72 hour incubation period, cells were fixed and stained with fluorescently labeled antibodies and nuclear dye to allow visualization of nuclei, apoptotic cells and mitotic cells. Apoptotic cells were detected using an anti-active caspase-3 antibody. Mitotic cells were detected using an anti phospho-histone-3 antibody.
Compound II was serially diluted 3.16-fold and assayed over 9 concentrations. Automated fluorescence microscopy was carried out using a GE Healthcare IN Cell Analyzer 1000, and images were collected with a 4× objective.
Twelve bit tiff images were acquired using the InCell Analyzer 1000 3.2 and analyzed with Developer Toolbox 1.6 software. EC50 and IC50 values were calculated using nonlinear regression to fit data to a sigmoidal 4 point, 4 parameter One-Site dose response model, where: y (fit)=A+[(B−A)/(1+((C/x)^D))]. Curve-fitting, EC50/IC50 calculations and report generation are performed using a custom data reduction engine MathIQ based software (AIM).
The multiplexed cytotoxicity assay uses a cell image based analysis technique where cells are fixed and stained with fluorescently labeled antibodies and nuclear dye to visualize nuclei, and apoptotic and mitotic cells. Apoptotic cells are detected using an anti-active caspase-3 antibody. Mitotic cells are detected using an anti phospho-histone-3 antibody. Cell proliferation is measured by the signal intensity of the incorporated nuclear dye. The cell proliferation assay output is referred to as the relative cell count. To determine the cell proliferation end point, the cell proliferation data output is transformed to percent of control (POC) using the following formula: POC=relative cell count(compound wells)/relative cell count(vehicle wells)×100.
Relative cell count IC50 is the test compound concentration at 50% of maximal possible response. A relative cell count EC50 is the test compound concentration at the curve inflection point or half the effective response (parameter C of the fitted curve solution). GI50 is the concentration needed to reduce the observed growth by half. This is the concentration that inhibits the growth midway between untreated cells and the number of cells seeded in the well (Time zero value).
The activated caspase-3 marker labels cells from early to late stage apoptosis. The output is shown as a fold increase of apoptotic cells over vehicle background normalized to the relative cell count in each well. Concentrations of test compound that cause a 5-fold induction in the caspase-3 signal indicates significant apoptosis induction. Wells with concentrations higher than the relative cell count IC95 are eliminated from the caspase3 induction analysis.
The phospho-histone-3 marker labels mitotic cells. The output is shown as a fold induction of mitotic cells over vehicle background normalized to the relative cell count in each well. When the fold induction of mitotic cell signal over background is ˜1, there is “no effect” on the cell cycle. Two or more fold increase in phospho-histone-3 signal over vehicle background indicates significant test compound induction of mitotic block.
Two or more fold decrease in the phospho-histone-3 signal may indicate G1/S block only when cytotoxicity levels are below the measured relative cell count IC95. […]

rhFUCA1 = rhFUCA1 (Homo sapiens (Human), UniProt P04066); assay: In vitro fucosidase inhibition (4MU-FUC fluorescence); assay type: biochemical; details: 1 ng/mL rhFUCA1, 640 nM 4MU-FUC, pH 4.5, 37° C., 30 minutes
rhFUCA1, sequence (P04066 32-466): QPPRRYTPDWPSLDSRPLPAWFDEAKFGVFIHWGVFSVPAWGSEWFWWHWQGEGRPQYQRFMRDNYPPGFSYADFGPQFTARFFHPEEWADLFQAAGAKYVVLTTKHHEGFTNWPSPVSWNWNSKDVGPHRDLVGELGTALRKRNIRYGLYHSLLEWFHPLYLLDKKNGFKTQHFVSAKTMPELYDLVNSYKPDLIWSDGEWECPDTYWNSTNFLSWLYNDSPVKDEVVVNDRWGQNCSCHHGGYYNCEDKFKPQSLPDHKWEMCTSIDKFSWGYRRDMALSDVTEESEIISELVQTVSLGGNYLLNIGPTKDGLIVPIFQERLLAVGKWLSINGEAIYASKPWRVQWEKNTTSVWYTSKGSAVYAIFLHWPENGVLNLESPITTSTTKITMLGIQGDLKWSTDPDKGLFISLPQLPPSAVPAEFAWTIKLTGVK
Method: Fucosidase inhibition was assessed by preparing a reaction mixture of 50 mM phosphate-citrate pH 4.5, 5 mM MgCl2, 640 nM 4-methylumbelliferyl-alpha-L-fucopyranoside (4MU-FUC), 1 ng/mL rhFUCA1 (R&D Systems), and compound II, III, or IV:
Reactions (100 μL) were incubated at 37° C. for 30 minutes and then quenched with the same volume of 600 mM citrate-carbonate buffer, pH 9. Fluorescence was measured by excitation at 360 nm and emission at 450 nm.

[2] = Pharmacokinetics in mouse plasma; assay type: in vivo; details: for Conc. of cmpd II: individual animal
Method: To assess the pharmacokinetics of compound II (see Example 2) in mouse plasma, compound II was administered intravenously at a dosage of 1 mg/kg. Compound II concentration was measured at various time points up to 24 hours after administration, and the results are provided in Table 5.

[3] = 87.5 mg/kg po twice daily (BIDx21), Day 0
[4] = 87.5 mg/kg po twice daily (BIDx21), Day 2
[5] = 87.5 mg/kg po twice daily (BIDx21), Day 5
[6] = 87.5 mg/kg po twice daily (BIDx21), Day 9
[7] = 87.5 mg/kg po twice daily (BIDx21), Day 12
[8] = 87.5 mg/kg po twice daily (BIDx21), Day 16
[9] = 87.5 mg/kg po twice daily (BIDx21), Day 20
[10] = 175 mg/kg po once daily (QDx21), Day 0
[11] = 175 mg/kg po once daily (QDx21), Day 2
[12] = 175 mg/kg po once daily (QDx21), Day 5
[13] = 175 mg/kg po once daily (QDx21), Day 9
[14] = 175 mg/kg po once daily (QDx21), Day 12
[15] = 175 mg/kg po once daily (QDx21), Day 16
[16] = 175 mg/kg po once daily (QDx21), Day 20

IC50 (rhFUCA1): 16 nM
Conc. of cmpd II ([2]; IV 1 mg/kg qdx1, 5 min): 247 ng/mL and 313 ng/mL and 259 ng/mL
Mean conc. of cmpd II ([2]; IV 1 mg/kg qdx1, 5 min): 273 ng/mL
Conc. of cmpd II ([2]; IV 1 mg/kg qdx1, 1 h): 28.7 ng/mL and 31.8 ng/mL and 34.3 ng/mL
Mean conc. of cmpd II ([2]; IV 1 mg/kg qdx1, 1 h): 31.6 ng/mL
Conc. of cmpd II ([2]; IV 1 mg/kg qdx1, 2 h): 8.58 ng/mL and 5.83 ng/mL and 9.10 ng/mL
Mean conc. of cmpd II ([2]; IV 1 mg/kg qdx1, 2 h): 7.84 ng/mL
Conc. of cmpd II ([2]; IV 1 mg/kg qdx1, 4 h): 2.76 ng/mL and 1.86 ng/mL and 3.36 ng/mL
Mean conc. of cmpd II ([2]; IV 1 mg/kg qdx1, 4 h): 2.66 ng/mL
Conc. of cmpd II ([2]; IV 1 mg/kg qdx1, 8 h): 1.56 ng/mL and 1.17 ng/mL and 1.57 ng/mL
Mean conc. of cmpd II ([2]; IV 1 mg/kg qdx1, 8 h): 1.43 ng/mL
Conc. of cmpd II ([2]; IV 1 mg/kg qdx1, 12 h): 1.04 ng/mL and 1.06 ng/mL and 2.04 ng/mL
Mean conc. of cmpd II ([2]; IV 1 mg/kg qdx1, 12 h): 1.38 ng/mL
SMILES: C[C@@H]1N[C@H](CNC(=O)c2cccc3c2C(=O)c2ccccc2-3)[C@@H](O)[C@H](O)[C@@H]1O [Compound II]
Body Weight [1, 3]: 22.45 g
Tumor Volume [1, 3]: 212 mm^3
Body Weight [1, 4]: 22.05 g
Tumor Volume [1, 4]: 224 mm^3
Body Weight [1, 5]: 21.93 g
Tumor Volume [1, 5]: 227 mm^3
Body Weight [1, 6]: 21.58 g
Tumor Volume [1, 6]: 247 mm^3
Body Weight [1, 7]: 21.51 g
Tumor Volume [1, 7]: 270 mm^3
Body Weight [1, 8]: 20.39 g
Tumor Volume [1, 8]: 326 mm^3
Body Weight [1, 9]: 20.86 g
Tumor Volume [1, 9]: 320 mm^3
Body Weight [1, 10]: 22.93 g
Tumor Volume [1, 10]: 211 mm^3
Body Weight [1, 11]: 22.94 g
Tumor Volume [1, 11]: 238 mm^3
Body Weight [1, 12]: 22.28 g
Tumor Volume [1, 12]: 277 mm^3
Body Weight [1, 13]: 22.1 g
Tumor Volume [1, 13]: 320 mm^3
Body Weight [1, 14]: 22.26 g
Tumor Volume [1, 14]: 348 mm^3
Body Weight [1, 15]: 20.58 g
Tumor Volume [1, 15]: 364 mm^3
Body Weight [1, 16]: 19.98 g
Tumor Volume [1, 16]: 416 mm^3
Primary effect (HPH): no effect
Conc. of cmpd II ([2]; IV 1 mg/kg qdx1, 24 h): BQL (Below Quantitation limit <1.0 ng/m1)
